Experiments:
[1] = target: T1, ABL1(DKIN) (Homo sapiens, UniProt P00519); assay: Phage-display competition binding assay (Kd), ABL1(DKIN)
T1 construct: ABL1(DKIN); fused on or other part: Fused to T7 bacteriophage particles (phage display)
Source text: (§1) The term “ND” represents non-determined values.

[2] = target: T2, ABL1(E255K) (Homo sapiens, UniProt P00519, E255K); assay: Phage-display competition binding assay (Kd), ABL1(E255K)
T2 construct: made in house; host or cells: T7 bacteriophage display
Source text: as §1

[3] = target: T3, ABL1(T3151) (Homo sapiens, UniProt P00519, T315I); assay: Phage-display competition binding assay (Kd), ABL1(T3151)
T3 construct: made in house; host or cells: T7 bacteriophage display
Source text: as §1

[4] = target: T4, ABL1(E274K) (Homo sapiens, UniProt P00519, E255K); assay: Phage-display competition binding assay (Kd), ABL1(E274K)
T4 construct: made in house; host or cells: T7 bacteriophage display
Source text: as §1

[5] = target: T5, ABL1(H396P) (Homo sapiens, UniProt P00519, H396P); assay: Phage-display competition binding assay (Kd), ABL1(H396P)
T5 construct: made in house; host or cells: T7 bacteriophage display
Source text: as §1

[6] = target: T6, ABL1(Y253F) (Homo sapiens, UniProt P00519, Y253F); assay: Phage-display competition binding assay (Kd), ABL1(Y253F)
T6 construct: made in house; host or cells: T7 bacteriophage display
Source text: as §1

[7] = target: T7, ABL1(Q252H) (Homo sapiens, UniProt P00519, Q252H); assay: Phage-display competition binding assay (Kd), ABL1(Q252H)
T7 construct: made in house; host or cells: T7 bacteriophage display
Source text: as §1

Row | Kd [1] | Kd [2] | Structure (SMILES) | other results
1 | > 10 µM | – | Cc1ccc(-n2nc(C(C)(C)C)cc2NC(=O)Nc2ccc(Br)cc2C(F)(F)F)cc1 [Compound H13] | –
2 | – | > 10 µM | Cc1[nH]c(C(=O)Nc2ccc(NC(=O)Nc3cc(C(C)(C)C)on3)cc2)c(C)c1CCC(=O)O [Compound N39] | –
3 | 0.1 to 1 µM | – | CC(C)(C)c1cc(NC(=O)Nc2ccc(NC(=O)Cc3sc(-c4ccc(Cl)cc4)nc3-c3ccccc3)cc2)no1 [Compound N66] | –
4 | – | > 10 µM | Cc1ccc(C(=O)Nc2ccc(NC(=O)Nc3nc(C(C)(C)C)cs3)cc2)cc1 [Compound N135] | Kd [3]: > 10 µM
5 | – | > 10 µM | CC(C)(C)c1cc(NC(=O)Nc2ccc(NC(=O)c3ccnc4ccccc34)cc2)no1 [Compound N141] | –
6 | – | > 10 µM | Cc1ccc(C(=O)Nc2ccc(NC(=O)Nc3cc(C(C)(C)C)on3)cc2)cn1 [Compound N142] | –
7 | – | > 10 µM | CC(C)(C)c1cc(NC(=O)Nc2ccc(NC(=O)c3ccc4ccccc4n3)cc2)no1 [Compound N143] | –
8 | – | > 10 µM | CC(C)(C)c1cc(NC(=O)Nc2ccc(NC(=O)c3ccc4cccnc4n3)cc2)no1 [Compound N144] | –
9 | – | > 10 µM | Cc1ncccc1C(=O)Nc1ccc(NC(=O)Nc2cc(C(C)(C)C)on2)cc1 [Compound N145] | –
10 | – | > 10 µM | COc1cc2nc(Cl)nc(Nc3ccc(NC(=O)Nc4cc(C(C)(C)C)on4)cc3)c2cc1OC [Compound O1, 1-(4-(2-chloro-6,7-dimethoxyquinazolin-4-ylamino)phenyl)-3-(5-tert-butylisoxazol-3-yl)urea] | Kd [5]: > 10 µM; Kd [6]: > 10 µM; Kd [7]: 1 to 10 µM; Kd [3]: 1 to 10 µM
11 | < 0.1 µM | 0.1 to 1 µM | COc1cc2ncnc(Nc3ccc(NC(=O)Nc4cc(C(C)(C)C)on4)cc3)c2cc1OC [Compound O5] | Kd [5]: 0.1 to 1 µM; Kd [6]: 0.1 to 1 µM; Kd [7]: 0.1 to 1 µM; Kd [3]: < 0.1 µM

Second part, the compound before the results:

Row | Structure (SMILES) | Kd [1] | Kd [2] | other results
12 | CC(C)(C)c1cc(NC(=O)Nc2ccc(Cl)c(C(F)(F)F)c2)no1 [Compound A1, 1-(5-tent-butylisoxazol-3-yl)-3-(4-chloro-3-(trifluoromethyl)phenyl)urea] | > 10 µM | – | –
13 | CC(C)(C)c1cc(NC(=O)Nc2ccc(Br)cc2C(F)(F)F)on1 [Compound A26] | > 10 µM | – | –
14 | COc1ccc(NC(=O)Nc2cc(C(C)(C)C)no2)cc1 [Compound A30] | > 10 µM | – | –
15 | CC(C)(C)c1cc(NC(=O)Nc2ccc(Cl)cc2)on1 [Compound A32] | > 10 µM | – | –
16 | CSc1ccc(NC(=O)Nc2cc(C(C)(C)C)no2)cc1 [Compound A39] | > 10 µM | – | –
17 | CC(C)(C)c1cc(NC(=O)Nc2ccc(Br)cc2C(F)(F)F)no1 [Compound A41] | > 10 µM | – | –
18 | CC(C)(C)c1cc(NC(=O)Nc2ccc(OCCCc3ccncc3)cc2)no1 [Compound G1, 1-(4-(3-(pyridin-4-yl)propoxy)phenyl)-3-(5-tert-butylisoxazol-3-yl)urea] | – | > 10 µM | –
19 | CC(C)(C)c1cc(NC(=O)Nc2ccc(OCCc3ccncc3)cc2)no1 [Compound G22] | – | > 10 µM | –
20 | CC(C)(C)c1cc(NC(=O)Nc2ccc(OCCc3ccccn3)cc2)no1 [Compound G27] | – | > 10 µM | Kd [3]: 1 to 10 µM
21 | CC(C)(C)c1csc(NC(=O)Nc2ccc(OCc3ccccc3)cc2)n1 [Compound G49] | – | > 10 µM | –
22 | CC(C)(C)c1cc(NC(=O)Nc2ccc(NC(=O)c3cccc4nc5cc(O)cc(O)c5cc34)cc2)no1 [Compound N139] | – | – | Kd [3]: > 10 µM
23 | CC(C)(C)c1cc(NC(=O)Nc2ccc(NC(=O)c3c4c(nc5ccccc35)CCCC4)cc2)no1 [Compound N140] | – | – | Kd [3]: > 10 µM
24 | CC(C)(C)c1cc(NC(=O)Nc2ccc(C(=O)Nc3nccnc3N)cc2)no1 [Compound N157] | – | – | Kd [4]: > 10 µM
25 | COC(=O)c1cccc(Sc2ncc(NC(=O)Nc3cc(C(C)(C)C)on3)s2)c1 [Compound O8] | – | – | Kd [3]: 0.1 to 1 µM

From US20100173917A1, “UREA DERIVATIVES AS ABL MODULATORS” (Ambit Biosciences Corporation, priority 2003, published 2010)
